Laboratory results reported in ChEMBL document CHEMBL3885881, “DrugMatrix”.

Organism: Rattus norvegicus
Experiment: DrugMatrix - Regimen: Daily Repeat
Type: toxicity, organism-based, Sprague-Dawley
Design: regimen Daily Repeat, gender Male, age 6-8 weeks
Conditions: in vivo, iv, vehicle 100 % SALINE; for ABSOLUTE BASOPHIL / ABSOLUTE EOSINOPHIL / ABSOLUTE LYMPHOCYTE / ABSOLUTE MONOCYTE / ABSOLUTE SEGMENTED NEUTROPHIL / BASOPHIL / EOSINOPHIL / ERYTHROCYTE COUNT / HEMATOCRIT / HEMOGLOBIN / LEUKOCYTE COUNT / LYMPHOCYTE / MEAN CORPUSCULAR HEMOGLOBIN / MEAN CORPUSCULAR HEMOGLOBIN CONCENTRATION / MEAN CORPUSCULAR VOLUME / MONOCYTE / NEUTROPHIL / NUCLEATED RED BLOOD CELLS / PLATELET COUNT: tissue Blood; for ALANINE AMINOTRANSFERASE / ALBUMIN / ALKALINE PHOSPHATASE / ASPARTATE AMINOTRANSFERASE / BLOOD UREA NITROGEN / CARBON DIOXIDE / CHLORIDE / CHOLESTEROL / CREATINE PHOSPHOKINASE / CREATININE / GLUCOSE / LACTATE DEHYDROGENASE / LIPASE / PHOSPHORUS / POTASSIUM / SODIUM / TOTAL BILIRUBIN / TOTAL PROTEIN / URIC ACID: tissue Plasma
[1] = 0 mg/kg, 72 h, dose level Control, time 3 day
[2] = 0 mg/kg, 120 h, dose level Control, time 5 day
[3] = 23 mg/kg, 72 h, dose level High, time 3 day

In the case of `COC(=O)C[C@](O)(CCC(C)(C)O)C(=O)O[C@@H]1C(OC)=C[C@]23CCCN2CCc2cc4c(cc2[C@H]13)OCO4` [HARRINGTONINE], the “ABSOLUTE BASOPHIL” value [1] is reported as 0 CELLS/uL, the “ABSOLUTE EOSINOPHIL” value [1] is reported as 15.33 CELLS/uL and the “ABSOLUTE LYMPHOCYTE” value [1] is reported as 9513.5 CELLS/uL. For the same compound, the “ABSOLUTE MONOCYTE” value [1] was 94.67 CELLS/uL, the “ABSOLUTE SEGMENTED NEUTROPHIL” value [1] was 709.83 CELLS/uL and the BASOPHIL [1] was 0%. For the same compound, the EOSINOPHIL [1] was 0.17%, the “ERYTHROCYTE COUNT” value [1] was 5.63 x10E6/uL and the HEMATOCRIT [1] was 34.63%. The HEMOGLOBIN [1] was 13.6 G/DL, the “LEUKOCYTE COUNT” value [1] was 10.33 x10E3/uL and the LYMPHOCYTE [1] was 92%. For the same compound, the “MEAN CORPUSCULAR HEMOGLOBIN” value [1] was 24.17 pg, the “MEAN CORPUSCULAR HEMOGLOBIN CONCENTRATION” value [1] was 39.28 G/DL and the “MEAN CORPUSCULAR VOLUME” value [1] was 61.57 fL. For the same compound, the MONOCYTE [1] was 0.83%, the NEUTROPHIL [1] was 7% and the “NUCLEATED RED BLOOD CELLS” value [1] was 0 /100WBC. The “PLATELET COUNT” value [1] was 903.17 x10E3/uL, the “ALANINE AMINOTRANSFERASE” value [1] was 49.33 u/L and the ALBUMIN [1] was 4.27 G/DL. The “ALKALINE PHOSPHATASE” value [1] was 400.83 u/L, the “ASPARTATE AMINOTRANSFERASE” value [1] was 77.5 u/L and the “BLOOD UREA NITROGEN” value [1] was 16.33 mg/dL. The “CARBON DIOXIDE” value [1] was 29.33 mmol/L, the CHLORIDE [1] was 99.67 MEQ/L and the CHOLESTEROL [1] was 66.67 mg/dL. The “CREATINE PHOSPHOKINASE” value [1] was 275.33 u/L, the CREATININE [1] was 0.18 mg/dL and the GLUCOSE [1] was 163.83 mg/dL. For the same compound, the “LACTATE DEHYDROGENASE” value [1] was 125.33 u/L, the LIPASE [1] was 10 u/L and the PHOSPHORUS [1] was 12.12 mg/dL. The POTASSIUM [1] was 6.68 MEQ/L, the SODIUM [1] was 144.02 MEQ/L and the “TOTAL BILIRUBIN” value [1] was 0.18 mg/dL. For the same compound, the “TOTAL PROTEIN” value [1] was 5.87 G/DL, the “URIC ACID” value [1] was 1.63 mg/dL and the “ABSOLUTE BASOPHIL” value [2] was 0 CELLS/uL. For the same compound, the “ABSOLUTE EOSINOPHIL” value [2] was 48.83 CELLS/uL, the “ABSOLUTE LYMPHOCYTE” value [2] was 14562 CELLS/uL and the “ABSOLUTE MONOCYTE” value [2] was 138.67 CELLS/uL. The “ABSOLUTE SEGMENTED NEUTROPHIL” value [2] was 1733.83 CELLS/uL, the BASOPHIL [2] was 0% and the EOSINOPHIL [2] was 0.33%. For the same compound, the “ERYTHROCYTE COUNT” value [2] was 5.89 x10E6/uL, the HEMATOCRIT [2] was 36.7% and the HEMOGLOBIN [2] was 14.42 G/DL. The “LEUKOCYTE COUNT” value [2] was 16.48 x10E3/uL, the LYMPHOCYTE [2] was 88.83% and the “MEAN CORPUSCULAR HEMOGLOBIN” value [2] was 24.52 pg. The “MEAN CORPUSCULAR HEMOGLOBIN CONCENTRATION” value [2] was 39.3 G/DL, the “MEAN CORPUSCULAR VOLUME” value [2] was 62.37 fL and the MONOCYTE [2] was 0.67%. For the same compound, the NEUTROPHIL [2] was 10.17%, the “NUCLEATED RED BLOOD CELLS” value [2] was 0 /100WBC and the “PLATELET COUNT” value [2] was 1076.5 x10E3/uL. For the same compound, the “ALANINE AMINOTRANSFERASE” value [2] was 44.67 u/L, the ALBUMIN [2] was 4.23 G/DL and the “ALKALINE PHOSPHATASE” value [2] was 357.33 u/L. For the same compound, the “ASPARTATE AMINOTRANSFERASE” value [2] was 84.83 u/L, the “BLOOD UREA NITROGEN” value [2] was 15.5 mg/dL and the “CARBON DIOXIDE” value [2] was 27 mmol/L. For the same compound, the CHLORIDE [2] was 99.5 MEQ/L, the CHOLESTEROL [2] was 63.67 mg/dL and the “CREATINE PHOSPHOKINASE” value [2] was 331.33 u/L. For the same compound, the CREATININE [2] was 0.18 mg/dL, the GLUCOSE [2] was 167.33 mg/dL and the “LACTATE DEHYDROGENASE” value [2] was 320.17 u/L. It also gave an LIPASE [2] of 9.17 u/L, a PHOSPHORUS [2] of 12.05 mg/dL and a POTASSIUM [2] of 6.54 MEQ/L. The SODIUM [2] was 143.02 MEQ/L, the “TOTAL BILIRUBIN” value [2] was 0.2 mg/dL and the “TOTAL PROTEIN” value [2] was 6.23 G/DL. For the same compound, the “URIC ACID” value [2] was 2.07 mg/dL, the “ABSOLUTE BASOPHIL” value [3] was 0 CELLS/uL and the “ABSOLUTE EOSINOPHIL” value [3] was 0 CELLS/uL. For the same compound, the “ABSOLUTE LYMPHOCYTE” value [3] was 9185.67 CELLS/uL, the “ABSOLUTE MONOCYTE” value [3] was 0 CELLS/uL and the “ABSOLUTE SEGMENTED NEUTROPHIL” value [3] was 547.67 CELLS/uL. The BASOPHIL [3] was 0%, the EOSINOPHIL [3] was 0% and the “ERYTHROCYTE COUNT” value [3] was 5.37 x10E6/uL. For the same compound, the HEMATOCRIT [3] was 32.9%, the HEMOGLOBIN [3] was 12.87 G/DL and the “LEUKOCYTE COUNT” value [3] was 9.73 x10E3/uL. The LYMPHOCYTE [3] was 94.33%, the “MEAN CORPUSCULAR HEMOGLOBIN” value [3] was 23.97 pg and the “MEAN CORPUSCULAR HEMOGLOBIN CONCENTRATION” value [3] was 39.1 G/DL. For the same compound, the “MEAN CORPUSCULAR VOLUME” value [3] was 61.2 fL, the MONOCYTE [3] was 0% and the NEUTROPHIL [3] was 5.67%. The “NUCLEATED RED BLOOD CELLS” value [3] was 0 /100WBC, the “PLATELET COUNT” value [3] was 883 x10E3/uL and the “ALANINE AMINOTRANSFERASE” value [3] was 44.67 u/L. For the same compound, the ALBUMIN [3] was 3.57 G/DL, the “ALKALINE PHOSPHATASE” value [3] was 237.67 u/L and the “ASPARTATE AMINOTRANSFERASE” value [3] was 76 u/L. For the same compound, the “BLOOD UREA NITROGEN” value [3] was 14.67 mg/dL, the “CARBON DIOXIDE” value [3] was 24.67 mmol/L and the CHLORIDE [3] was 101 MEQ/L. The CHOLESTEROL [3] was 58.33 mg/dL, the “CREATINE PHOSPHOKINASE” value [3] was 746.33 u/L and the CREATININE [3] was 0.17 mg/dL. For the same compound, the GLUCOSE [3] was 168.33 mg/dL, the “LACTATE DEHYDROGENASE” value [3] was 240.33 u/L and the LIPASE [3] was 8 u/L. For the same compound, the PHOSPHORUS [3] was 11.7 mg/dL, the POTASSIUM [3] was 5.94 MEQ/L and the SODIUM [3] was 141.53 MEQ/L. For the same compound, the “TOTAL BILIRUBIN” value [3] was 0.2 mg/dL, the “TOTAL PROTEIN” value [3] was 5.2 G/DL and the “URIC ACID” value [3] was 1.93 mg/dL.
